Source: US20230348362A1, “LIPID COMPOUNDS AND LIPID NANOPARTICLE COMPOSITIONS” (Suzhou Abogen Biosciences Co., Ltd., priority 2021, published 2023)

How the values were obtained:
Assay type in all cases: physicochemical
[1] = Apparent pKa of LNP formulations, TNS fluorescence assay; conditions: LNP cationic lipid/DSPC/cholesterol/DMG-PEG 50/10/38.5/1.5 mol %
How it was run: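 LNPs (cationic lipid/DSPC/cholesterol/DMG-PEG 50/10/38.5/1.5 mol %) diluted to 0.1 mg/mL total lipid in citrate/phosphate/borate/NaCl buffers spanning pH 3–9 with TNS. Fluorescence (ex 325, em 435 nm) read at room temperature; pKa taken as the pH at half-maximal intensity from sigmoidal fit.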

[2] = Encapsulation efficiency of lipid nanoparticles, Quant-it Ribogreen RNA assay; conditions: LNP of lipid/DSPC/cholesterol/PEG-lipid 50:10:38.5:1.5 encapsulating hEPO mRNA
How it was run: (§1)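 LNPs made from ionizable lipid/DSPC/cholesterol/PEG-lipid (50:10:38.5:1.5) and mRNA in citrate pH 4 by microfluidic mixing, lipid:mRNA about 10:1–30:1 w/w, then dialysed into DPBS and filtered. Size and PDI measured by DLS in backscatter mode; encapsulation efficiency measured by RiboGreen assay.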

[3] = Lipid nanoparticle size and polydispersity by dynamic light scattering; conditions: LNP of lipid/DSPC/cholesterol/PEG-lipid 50:10:38.5:1.5 encapsulating hEPO mRNA
How it was run: as §1

CCCCCCCCC(CCCCCCCC)COC(=O)OCCCCCN(CCO)CCN(CCCCCNC(=O)CC(CCCCCC)CCCCCCCC)C1CCCCCC1 (stereo not drawn) [Compound 153]
Apparent Pka [1]: 6.437 | Encapsulation Efficiency [2]: 93.09% | polydispersity [3]: 0.048 | size (nm) [3]: 73.95 nm

CCCCCCCCC(CCCCCC)COC(=O)CCCCCN(CCO)CCN(CCCCC(COC(=O)CCCCCCC)COC(=O)CCCCCCC)C1CC1 (stereo not drawn) [Compound 154]
Apparent Pka [1]: 6.061 | Encapsulation Efficiency [2]: 87.11% | polydispersity [3]: 0.101 | size (nm) [3]: 56.95 nm

CCCCCCCCC(CCCCCC)CNC(=O)CCCCCN(CCO)CCN(CCCCC(COC(=O)CCCCCCC)COC(=O)CCCCCCC)C1CC1 (stereo not drawn) [Compound 155]
Apparent Pka [1]: 6.28 | Encapsulation Efficiency [2]: 89.57% | polydispersity [3]: 0.071 | size (nm) [3]: 70.67 nm

CCCCCCCCC(CCCCCC)COC(=O)CCCCCN(CC)CCN(CCO)CCCCC(COC(=O)CCCCCCC)COC(=O)CCCCCCC (stereo not drawn) [Compound 157]
Apparent Pka [1]: 6.674 | Encapsulation Efficiency [2]: 95.04% | polydispersity [3]: 0.112 | size (nm) [3]: 88.09 nm

CCCCCCCC(=O)OCC(CCCCN(CCO)CCN(CCCCC(COC(=O)CCCCCCC)COC(=O)CCCCCCC)C1CCCCCCC1)COC(=O)CCCCCCC [Compound 161]
Apparent Pka [1]: 6.02 | Encapsulation Efficiency [2]: 87.54% | polydispersity [3]: 0.090 | size (nm) [3]: 72.08 nm

CCCCCCC(=O)OCC(CCCCN(CCO)CCN(CCCCC(COC(=O)CCCCCC)COC(=O)CCCCCC)C1CCC1)COC(=O)CCCCCC [Compound 165]
Apparent Pka [1]: 6.183 | Encapsulation Efficiency [2]: 75.66% | polydispersity [3]: 0.125 | size (nm) [3]: 131.30 nm

CCCCCCCCC(=O)OCC(CCCCN(CCO)CCN(CCCCC(COC(=O)CCCCCCCC)COC(=O)CCCCCCCC)C1CCC1)COC(=O)CCCCCCCC [Compound 166]
Apparent Pka [1]: 6.513 | Encapsulation Efficiency [2]: 92.85% | polydispersity [3]: 0.092 | size (nm) [3]: 75.12 nm

CCCCCCCCCCC(=O)OCC(CCCCN(CCO)CCN(CCCCC(COC(=O)CCCCCCCCCC)COC(=O)CCCCCCCCCC)C1CCC1)COC(=O)CCCCCCCCCC [Compound 168]
Apparent Pka [1]: 6.537 | Encapsulation Efficiency [2]: 91.48% | polydispersity [3]: 0.107 | size (nm) [3]: 78.08 nm

CCCCCCCCCCCC(=O)OCC(CCCCN(CCO)CCN(CCCCC(COC(=O)CCCCCCCCCCC)COC(=O)CCCCCCCCCCC)C1CCC1)COC(=O)CCCCCCCCCCC [Compound 169]
Apparent Pka [1]: 6.447 | Encapsulation Efficiency [2]: 89.88% | polydispersity [3]: 0.153 | size (nm) [3]: 73.05 nm

CCCCCCCCC(CCCCCCCC)COC(=O)CCCCCN1CCC(N(CCO)CCCCCC(=O)OCC(CCCCCCCC)CCCCCCCC)CC1 [Compound 170]
Apparent Pka [1]: 6.269 | Encapsulation Efficiency [2]: 96.0% | polydispersity [3]: 0.09 | size (nm) [3]: 74.62 nm

CCCCCCCCCOC(=O)CCCCCCCN1CCC(N(CCO)CCCCCCCC(=O)OC(CCCCCCCC)CCCCCCCC)CC1 [Compound 177]
Apparent Pka [1]: 6.668 | Encapsulation Efficiency [2]: 93.69% | polydispersity [3]: 0.059 | size (nm) [3]: 95.00 nm

CCCCCCCC(=O)OCC(COCCN(CCO)CCN(CCOCC(COC(=O)CCCCCCC)COC(=O)CCCCCCC)C1CCC1)COC(=O)CCCCCCC [Compound 178]
Apparent Pka [1]: 6.337 | Encapsulation Efficiency [2]: 89.15% | polydispersity [3]: 0.056 | size (nm) [3]: 96.32 nm

CCCCCCCC(=O)OCC(COCCN(CCO)CCN(CCOCC(COC(=O)CCCCCCC)COC(=O)CCCCCCC)C1CCCCC1)COC(=O)CCCCCCC [Compound 179]
Apparent Pka [1]: 6.322 | Encapsulation Efficiency [2]: 89.97% | polydispersity [3]: 0.041 | size (nm) [3]: 103.40 nm

CCCCCCCC(=O)OCC(CCCCN(CCO)CCCCN(CCCCC(COC(=O)CCCCCCC)COC(=O)CCCCCCC)C1CCCC1)COC(=O)CCCCCCC [Compound 181]
Apparent Pka [1]: 6.995 | Encapsulation Efficiency [2]: 94.10% | polydispersity [3]: 0.154 | size (nm) [3]: 119.3 nm

CCCCCCCCCCCOC(=O)CCCCCN(CCN(CCO)CCCCC(COC(=O)CCCCCCC)COC(=O)CCCCCCC)C1CCC1 [Compound 182]
Apparent Pka [1]: 6.862 | Encapsulation Efficiency [2]: 91.00% | polydispersity [3]: 0.09 | size (nm) [3]: 99.97 nm

CCCCCCCCCCCOC(=O)CCCCCN(CCN(CCO)CCCCC(COC(=O)CCCCCCC)COC(=O)CCCCCCC)C1CCCC1 [Compound 183]
Apparent Pka [1]: 6.858 | Encapsulation Efficiency [2]: 92.26% | polydispersity [3]: 0.032 | size (nm) [3]: 103.2 nm

CCCCCCCC(=O)OCC(CCCCN(CCC)CCCCN(CCO)CCCCC(COC(=O)CCCCCCC)COC(=O)CCCCCCC)COC(=O)CCCCCCC [Compound 184]
Apparent Pka [1]: 7.098 | Encapsulation Efficiency [2]: 90.65% | polydispersity [3]: 0.172 | size (nm) [3]: 129.75 nm

CCCCCCCC(=O)OCC(CCCCN(CCO)CCCCN(CCCCC(COC(=O)CCCCCCC)COC(=O)CCCCCCC)C1CCCCC1)COC(=O)CCCCCCC [Compound 185]
Apparent Pka [1]: 6.593 | Encapsulation Efficiency [2]: 90.39% | polydispersity [3]: 0.111 | size (nm) [3]: 75.27 nm

CCCCCCCCC(CCCCCCCC)CNC(=O)CCCCCN(CCCCN(CCO)CCCCC(COC(=O)CCCCCCC)COC(=O)CCCCCCC)C1CCC1 [Compound 186]
Apparent Pka [1]: 7.617 | Encapsulation Efficiency [2]: 91.69% | polydispersity [3]: 0.139 | size (nm) [3]: 72.88 nm

CCCCCCCCC(CCCCCCCC)COC(=O)CCCCCN(CCCCCN(CCO)CCCCC(COC(=O)CCCCCCC)COC(=O)CCCCCCC)C1CCC1 [Compound 187]
Apparent Pka [1]: 6.226 | Encapsulation Efficiency [2]: 94.26% | polydispersity [3]: 0.083 | size (nm) [3]: 88.82 nm

CCCCCCCCCCCNC(=O)CCCCCN(CCN(CCO)CCCCC(COC(=O)CCCCCCC)COC(=O)CCCCCCC)C1CCC1 [Compound 188]
Apparent Pka [1]: 6.738 | Encapsulation Efficiency [2]: 86.80% | polydispersity [3]: 0.085 | size (nm) [3]: 111.8 nm

CCCCCCCC(=O)OCC(CCCCN(CCO)CCCCN(CCCCC(COC(=O)CCCCCCC)COC(=O)CCCCCCC)C(C)C)COC(=O)CCCCCCC [Compound 189]
Apparent Pka [1]: 6.542 | Encapsulation Efficiency [2]: 93.88% | polydispersity [3]: 0.114 | size (nm) [3]: 87.22 nm

CCCCCCCCC(CCCCCC)COC(=O)CCCCCN(CCCCN(CCO)CCCCC(COC(=O)CCCCCCC)COC(=O)CCCCCCC)C1CC1 (stereo not drawn) [Compound 190]
Apparent Pka [1]: 6.699 | Encapsulation Efficiency [2]: 88.81% | polydispersity [3]: 0.13 | size (nm) [3]: 78.4 nm

CCCCCCCCC(CCCCCC)COC(=O)CCCCCN(CCCCN(CCO)CCCCC(COC(=O)CCCCCCC)COC(=O)CCCCCCC)C1CCCC1 (stereo not drawn) [Compound 191]
Apparent Pka [1]: 6.552 | Encapsulation Efficiency [2]: 93.35% | polydispersity [3]: 0.117 | size (nm) [3]: 86.61 nm

CCCCCCCCC(CCCCCC)COC(=O)CCCCCN(CCCCN(CCO)CCCCC(COC(=O)CCCCCCC)COC(=O)CCCCCCC)C1CCCCC1 (stereo not drawn) [Compound 192]
Apparent Pka [1]: 6.707 | Encapsulation Efficiency [2]: 90.40% | polydispersity [3]: 0.109 | size (nm) [3]: 82.66 nm

CCCCCCCCC(CCCCCC)COC(=O)CCCCCN(CCCCN(CCO)CCCCC(COC(=O)CCCCCCC)COC(=O)CCCCCCC)C1CCCCCC1 (stereo not drawn) [Compound 193]
Apparent Pka [1]: 6.666 | Encapsulation Efficiency [2]: 84.30% | polydispersity [3]: 0.228 | size (nm) [3]: 80.39 nm

CCCCCCCCC(CCCCCC)COC(=O)CCCCCN(CCCCN(CCO)CCCCC(COC(=O)CCCCCCC)COC(=O)CCCCCCC)C1CCCCCCC1 (stereo not drawn) [Compound 194]
Apparent Pka [1]: 6.705 | Encapsulation Efficiency [2]: 84.59% | polydispersity [3]: 0.15 | size (nm) [3]: 102.1 nm

CCCCCCCCC(CCCCCC)CNC(=O)CCCCCN(CCCCN(CCO)CCCCC(COC(=O)CCCCCCC)COC(=O)CCCCCCC)C1CC1 (stereo not drawn) [Compound 195]
Apparent Pka [1]: 6.925 | Encapsulation Efficiency [2]: 83.82% | polydispersity [3]: 0.153 | size (nm) [3]: 104.2 nm

CCCCCCCCC(CCCCCC)CNC(=O)CCCCCN(CCCCN(CCO)CCCCC(COC(=O)CCCCCCC)COC(=O)CCCCCCC)C1CCCCCC1 (stereo not drawn) [Compound 198]
Apparent Pka [1]: 6.984 | Encapsulation Efficiency [2]: 88.41% | polydispersity [3]: 0.069 | size (nm) [3]: 96.11 nm

CCCCCCCCC(CCCCCC)CNC(=O)CCCCCN(CCCCN(CCO)CCCCC(COC(=O)CCCCCCC)COC(=O)CCCCCCC)C1CCCCCCC1 (stereo not drawn) [Compound 199]
Apparent Pka [1]: 6.858 | Encapsulation Efficiency [2]: 94.30% | polydispersity [3]: 0.162 | size (nm) [3]: 80.14 nm

CCCCCCCCCCCOC(=O)CCCCCN(CCN(CCO)CCCCCC(OCCCCCCCC)OCCCCCCCC)C1CCC1 [Compound 200]
Apparent Pka [1]: 6.593 | Encapsulation Efficiency [2]: 92.81% | polydispersity [3]: 0.054 | size (nm) [3]: 84.18 nm

CCCCCCCCOC(CCCCCN(CCO)CCN(CCCCCC(=O)OCC(CCCCCC)CCCCCCCC)C1CCC1)OCCCCCCCC (stereo not drawn) [Compound 201]
Apparent Pka [1]: 6.226 | Encapsulation Efficiency [2]: 94.15% | polydispersity [3]: 0.028 | size (nm) [3]: 91.64 nm

CCCCCCCCOC(CCCCCN(CCO)CCN(CCCCCC(=O)NCC(CCCCCC)CCCCCCCC)C1CCCCCC1)OCCCCCCCC (stereo not drawn) [Compound 202]
Apparent Pka [1]: 6.738 | Encapsulation Efficiency [2]: 88.47% | polydispersity [3]: 0.042 | size (nm) [3]: 84.35 nm
